Measurements: patent US6770650B2, “Cyclic amine derivatives-CCR-3 receptor antagonists” (Syntex (U.S.A.) LLC, priority 1997, dated 2004)

Assays:
CCR-3 receptor = target: T1, CCR-3 receptor (Homo sapiens, UniProt P51677); assay: CCR-3 Receptor Binding Assay, inhibition of 125I eotaxin binding to CCR-3 L1.2 transfectant cells; details: concentration required to reduce 125I-eotaxin binding to the CCR-3 L1.2 transfected cells by 50%
T1 construct: expressed in transfected cells; host or cells: L1.2 cells (murine pre-B lymphoma line)
T1 sequence (P51677 1-355): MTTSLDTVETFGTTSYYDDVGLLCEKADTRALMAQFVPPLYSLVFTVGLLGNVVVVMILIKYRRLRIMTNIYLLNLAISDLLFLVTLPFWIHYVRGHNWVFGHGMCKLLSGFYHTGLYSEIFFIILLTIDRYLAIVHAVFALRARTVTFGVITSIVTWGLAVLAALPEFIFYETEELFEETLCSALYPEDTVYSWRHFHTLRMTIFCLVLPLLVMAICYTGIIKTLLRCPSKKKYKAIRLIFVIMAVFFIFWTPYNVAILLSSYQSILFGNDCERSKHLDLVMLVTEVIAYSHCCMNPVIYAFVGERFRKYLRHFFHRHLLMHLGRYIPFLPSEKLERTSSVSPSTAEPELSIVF
Procedure: The CCR-3 antagonistic activity of the compounds of the invention was determined by their ability to inhibit the binding of ^125I eotaxin to CCR-3 L1.2 transfectant cells ((see Ponath, P. D. et al., J. Exp. Med., Vol. 183, 2437-2448, (1996)).
The assay was performed in Costar 96-well polypropylene round bottom plates. Test compounds were dissolved in DMSO and then diluted with binding buffer (50 mM HEPES, 1 mM CaCl2, 5 mM MgCl2, 0.5% bovine serum albumin (BSA), 0.02% sodium azide, pH 7.24) such that the final DMSO concentration was 2%. 25 μl of the test solution or only buffer with DMSO (control samples) was added to each well, followed by the addition of 25 μl of ^125I-eotaxin ([…]) (NEX314, New England Nuclear, Boston, Mass.) and 1.5×10^5 of the CCR-3 L1.2 transfected cells in 25 μl binding buffer. The final reaction volume was 75 μl.
After incubating the reaction mixture for 1 h at room temperature, the reaction was terminated by filtering the reaction mixture through polyethylenimine treated Packard Unifilter GF/C filter plate (Packard, Chicago, Ill.). The filters were washed four times with ice cold wash buffer containing 10 mm HEPES and 0.5M sodium chloride (pH 7.2) and dried at 65° C. for approximately 10 min. 25 μl/well of Microscint-20™ scintillation fluid (Packard) was added and the radioactivity retained on the filters was determined by using the Packard TopCount™.
The IC50 value (concentration of test compound required to reduce ^125I-eotaxin binding to the CCR-3 L1.2 transfected cells by 50%) for some of the compounds of the invention was: […]

[1] = test system: CCR-3 L1.2 transfectant cells; assay: Inhibition of eotaxin mediated chemotaxis of CCR-3 L1.2 transfectant cells; type: cell-based; details: concentration required to reduce eotaxin mediated chemotaxis of CCR-3 L1.2 transfected cells by 50%
Procedure: The CCR-3 antagonistic activity of the compounds of this invention was determined by measuring the inhibition of eotaxin mediated chemotaxis of the CCR-3 L1.2 transfectant cells, using a slight modification of the method described in Ponath, P. D. et al., J. Clin. Invest. 97: 604-612 (1996). The assay was performed in a 24-well chemotaxis plate (Costar Corp., Cambridge Mass.) CCR-3 L1.2 transfectant cells were grown in culture medium containing RPMI 1640, 10% Hyclone™ fetal calf serum, […] 2-mercaptoethanol and Geneticin 418 (0.8 mg/ml). 18-24 hours before the assay, the transfected cells were treated with n-butyric acid at a final concentration of 5 mM/1×10^6 cells/ml, isolated and resuspended at 1×10^7 cells/ml in assay medium containing equal parts of RPMI 1640 and Medium 199 (M 199) with 0.5% bovine serum albumin.
Human eotaxin suspended in phosphate buffered saline at 1 mg/ml was added to bottom chamber in a final concentration of 100 nm. Transwell culture inserts (Costar Corp., Cambridge Mass.) having 3 micron pore size were inserted into each well and L1.2 cells (1×10^6) were added to the top chamber in a final volume of 100 μl. Test compounds in DMSO were added both to the top and bottom chambers such that the final DMSO volume was 0.5%. The assay was performed against two sets of controls. The positive control contained cells with no test compound in the top chamber and only eotaxin in the lower chamber. The negative control contained cells with no test compound in the top chamber and neither eotaxin nor test compound in lower chamber. The plate was incubated at 37° C. After 4 h, the inserts were removed from the chambers and the cells that had migrated to the bottom chamber were counted by pipetting out 500 μl of the cell suspension from the lower chamber to 1.2 ml Cluster tubes (Costar) and counting them on a FACS for 30 sec.
The IC50 value (concentration of test compound required to reduce eotaxin mediated chemotaxis of CCR-3 L1.2 transfected cells by 50%) for some of the compounds of the invention was: […]

Row | IC50 (CCR-3 receptor) [nM] | IC50 [1] [nM] | melting point [°C] | Structure (SMILES)
1 | 950 | 210 | – | COc1cc(N)c(Cl)cc1C(=O)NCC1CCN(CC(NC(=O)c2ccc(C)cc2)C(C)C)CC1 (racemic) [compound 59, N-{1-(RS)-[4-(4-Amino-5-chloro-2-methoxyphenylcarbonylaminomethyl)piperidin-1-yl-methyl]-2-methylpropyl}-4-methylbenzamide]
2 | 690 | 460 | – | COc1cccc(NC(=O)NC2CCCCC2N2CCN(Cc3ccc(Cl)c(Cl)c3)CC2)c1 (racemic) [compound 84, 1-{2(RS)-[4-(3,4-Dichlorobenzyl)piperazin-1-yl]cyclohexyl}-3-(3-methoxyphenyl)urea]
3 | – | 240 | – | Cc1ccc(C(=O)N[C@H](CN2CCC(Cc3ccc(Cl)c(Cl)c3)CC2)C(C)C)cc1 [compound 57, N-{1-(S)-[4-(3,4-Dichlorobenzyl)piperidin-1-ylmethyl]-2-methylpropyl}-4-methylbenzamide]
4 | 3370 | 60 | 271.1 to 275.5 | Cc1cc(C)c(NC(=O)N[C@@H](CN2CCN(Cc3ccc(Cl)c(Cl)c3)CC2)C(C)C)c(C)c1 [compound 93]
